Experimental data as given in US8871753B2, “Macrocyclic compounds and their use as kinase inhibitors” (Incyte Corporation, priority 2008, dated 2014).

Columns and labels:
Type in all cases: biochemical
[1] = target: T1, human JAK2 (a.a. 828-1132) (Homo sapiens, UniProt O60674); assay: In vitro JAK kinase assay (HTRF, phosphorylation of a biotinylated peptide), JAK2; settings: Table D1
T1 construct: JAK2 (a.a. 828-1132); His tag (N); made in house; host or cells: insect cells (baculovirus)
Summary of the method: (§1)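 Phosphorylation of a biotinylated peptide by the JAK kinase domain, detected by HTRF with Eu-Py20 and SA-APC. ATP was 90 μM for JAK1, 30 μM for JAK2 and 3 μM for JAK3. Reactions ran 1 h at room temperature and were stopped with EDTA, followed by 40 min antibody binding.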

[2] = target: T2, human JAK1 (a.a. 837-1142) (Homo sapiens, UniProt P23458); assay: In vitro JAK kinase assay (HTRF, phosphorylation of a biotinylated peptide), JAK1; settings: Table D1; read-out: JAK1 IC50
T2 construct: human JAK1 (a.a. 837-1142); His tag (N); made in house; host or cells: insect cells (baculovirus)
T2 sequence (P23458 849-1154): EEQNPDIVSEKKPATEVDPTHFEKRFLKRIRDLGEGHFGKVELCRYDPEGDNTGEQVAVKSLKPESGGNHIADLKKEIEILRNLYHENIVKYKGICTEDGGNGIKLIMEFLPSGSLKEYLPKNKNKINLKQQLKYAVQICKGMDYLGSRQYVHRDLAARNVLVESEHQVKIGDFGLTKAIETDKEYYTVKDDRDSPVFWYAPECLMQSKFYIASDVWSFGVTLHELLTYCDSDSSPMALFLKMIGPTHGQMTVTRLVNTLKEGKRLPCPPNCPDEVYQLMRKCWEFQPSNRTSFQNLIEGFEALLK
Summary of the method: as §1

[3] = target: TYK2 (Homo sapiens, UniProt P29597); assay: TYK2 kinase inhibition (Table A1); settings: Table D1
Chain of TYK2 (P29597 whole entry): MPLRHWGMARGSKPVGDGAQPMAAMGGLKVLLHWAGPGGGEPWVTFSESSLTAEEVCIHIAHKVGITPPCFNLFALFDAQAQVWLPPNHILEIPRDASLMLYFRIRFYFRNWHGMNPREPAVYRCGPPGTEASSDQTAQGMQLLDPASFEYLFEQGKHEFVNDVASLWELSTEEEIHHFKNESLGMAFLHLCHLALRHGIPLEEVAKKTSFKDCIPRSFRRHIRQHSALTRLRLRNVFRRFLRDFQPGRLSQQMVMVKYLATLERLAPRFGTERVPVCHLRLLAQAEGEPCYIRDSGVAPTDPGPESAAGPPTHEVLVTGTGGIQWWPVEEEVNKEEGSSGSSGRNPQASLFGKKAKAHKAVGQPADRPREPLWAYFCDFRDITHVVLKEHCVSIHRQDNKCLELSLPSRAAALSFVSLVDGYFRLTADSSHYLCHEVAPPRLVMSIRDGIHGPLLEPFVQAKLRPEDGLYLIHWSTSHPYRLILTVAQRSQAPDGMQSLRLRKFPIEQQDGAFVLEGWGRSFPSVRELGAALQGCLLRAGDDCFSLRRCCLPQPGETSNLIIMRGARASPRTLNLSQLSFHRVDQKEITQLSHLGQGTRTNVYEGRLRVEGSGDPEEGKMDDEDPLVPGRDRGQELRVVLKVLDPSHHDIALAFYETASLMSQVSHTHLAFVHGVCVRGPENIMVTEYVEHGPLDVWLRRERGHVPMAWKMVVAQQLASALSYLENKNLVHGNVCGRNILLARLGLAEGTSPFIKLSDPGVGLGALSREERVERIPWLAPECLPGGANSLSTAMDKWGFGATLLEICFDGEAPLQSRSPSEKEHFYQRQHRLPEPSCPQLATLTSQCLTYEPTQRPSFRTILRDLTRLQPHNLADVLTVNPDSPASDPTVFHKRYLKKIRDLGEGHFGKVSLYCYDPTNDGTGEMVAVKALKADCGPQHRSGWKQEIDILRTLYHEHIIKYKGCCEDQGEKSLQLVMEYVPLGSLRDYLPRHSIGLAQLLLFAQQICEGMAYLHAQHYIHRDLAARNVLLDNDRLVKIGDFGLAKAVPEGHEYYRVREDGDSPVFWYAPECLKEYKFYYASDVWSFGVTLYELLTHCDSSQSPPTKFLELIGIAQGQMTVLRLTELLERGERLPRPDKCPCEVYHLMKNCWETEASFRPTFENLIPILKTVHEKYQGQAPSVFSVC

[4] = target: T3, human JAK3 (a.a. 781-1124) (Homo sapiens, UniProt P52333); assay: In vitro JAK kinase assay (HTRF, phosphorylation of a biotinylated peptide), JAK3; settings: Table D1
T3 construct: JAK3 (a.a. 781-1124); His tag (N); made in house; host or cells: insect cells (baculovirus)
T3 sequence (P52333 781-1124): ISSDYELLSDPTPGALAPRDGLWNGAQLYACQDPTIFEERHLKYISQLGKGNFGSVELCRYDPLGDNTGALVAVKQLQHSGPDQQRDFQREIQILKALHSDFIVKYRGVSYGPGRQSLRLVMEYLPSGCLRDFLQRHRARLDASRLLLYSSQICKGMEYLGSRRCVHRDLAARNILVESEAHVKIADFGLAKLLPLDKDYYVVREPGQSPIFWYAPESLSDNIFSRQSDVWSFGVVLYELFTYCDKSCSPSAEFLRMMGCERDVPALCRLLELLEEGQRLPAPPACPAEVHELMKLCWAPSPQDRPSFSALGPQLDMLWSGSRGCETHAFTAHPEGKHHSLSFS
Summary of the method: as §1

T1 sequence (O60674 828-1132): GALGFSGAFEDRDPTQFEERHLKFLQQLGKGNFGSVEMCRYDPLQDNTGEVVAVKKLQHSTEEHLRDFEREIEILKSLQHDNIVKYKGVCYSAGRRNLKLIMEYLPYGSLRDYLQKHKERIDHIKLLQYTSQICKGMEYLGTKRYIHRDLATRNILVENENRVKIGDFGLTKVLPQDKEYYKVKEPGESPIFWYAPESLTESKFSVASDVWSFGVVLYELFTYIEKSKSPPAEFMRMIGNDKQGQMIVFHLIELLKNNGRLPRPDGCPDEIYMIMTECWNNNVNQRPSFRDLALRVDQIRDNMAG

Row | SMILES | IC50 [1] | IC50 [2] | IC50 [3] | IC50 [4]
1 | O=C(Nc1cccc(F)c1)N1CCC(CCOc2ccc3cc2CCc2cncc(c2)Nc2ncc(Cl)c(n2)N3)CC1 [Example D169, 4-(2-{[6-Chloro-2,4,8,18,22-pentaazatetracyclo[14.3.1.1(3,7).1(9,13)]docosa-1(20),3(22),4,6,9(21),10,12,16,18-nonaen-12-yl]oxy}ethyl)-N-(3-fluorophenyl)piperidine-1-carboxamide bis(trifluoroacetate)] | 235 nM | 39 nM | > 400 nM | > 400 nM
2 | O=C(Nc1ccccc1F)N1CCC(CCOc2ccc3cc2CCc2cncc(c2)Nc2ncc(Cl)c(n2)N3)CC1 [Example D170, 4-(2-{[6-Chloro-2,4,8,18,22-pentaazatetracyclo[14.3.1.1(3,7).1(9,13)]docosa-1(20),3(22),4,6,9(21),10,12,16,18-nonaen-12-yl]oxy}ethyl)-N-(2-fluorophenyl)piperidine-1-carboxamide bis(trifluoroacetate)] | 130 nM | 23 nM | > 400 nM | > 400 nM
3 | Cc1noc(C)c1NC(=O)N1CCC(CCOc2ccc3cc2CCc2cncc(c2)Nc2ncc(Cl)c(n2)N3)CC1 [Example D171, 4-(2-{[6-Chloro-2,4,8,18,22-pentaazatetracyclo[14.3.1.1(3,7).1(9,13)]docosa-1(20),3(22),4,6,9(21),10,12,16,18-nonaen-12-yl]oxy}ethyl)-N-(3,5-dimethylisoxazol-4-yl)piperidine-1-carboxamide bis(trifluoroacetate)] | 244 nM | 117 nM | > 400 nM | > 400 nM
4 | Cc1csc(NC(=O)N2CCC(CCOc3ccc4cc3CCc3cncc(c3)Nc3ncc(Cl)c(n3)N4)CC2)c1 [Example D172, 4-(2-{[6-Chloro-2,4,8,18,22-pentaazatetracyclo[14.3.1.1(3,7).1(9,13)]docosa-1(20),3(22),4,6,9(21),10,12,16,18-nonaen-12-yl]oxy}ethyl)-N-(4-methyl-2-thienyl)piperidine-1-carboxamide bis(trifluoroacetate)] | > 400 nM | 130 nM | > 400 nM | > 400 nM
5 | N#Cc1ccccc1NC(=O)N1CCC(CCOc2ccc3cc2CCc2cncc(c2)Nc2ncc(Cl)c(n2)N3)CC1 [Example D173, 4-(2-{[6-Chloro-2,4,8,18,22-pentaazatetracyclo[14.3.1.1(3,7).1(9,13)]docosa-1(20),3(22),4,6,9(21),10,12,16,18-nonaen-12-yl]oxy}ethyl)-N-(2-cyanophenyl)piperidine-1-carboxamide bis(trifluoroacetate)] | > 400 nM | 100 nM | > 400 nM | > 400 nM
6 | N#Cc1ccc(NC(=O)N2CCC(CCOc3ccc4cc3CCc3cncc(c3)Nc3ncc(Cl)c(n3)N4)CC2)cc1 [Example D174, 4-(2-{[6-Chloro-2,4,8,18,22-pentaazatetracyclo[14.3.1.1(3,7).1(9,13)]docosa-1(20),3(22),4,6,9(21),10,12,16,18-nonaen-12-yl]oxy}ethyl)-N-(4-cyanophenyl)piperidine-1-carboxamide bis(trifluoroacetate)] | > 400 nM | 160 nM | > 400 nM | > 400 nM
7 | CC1(C)Cc2cccc(NC(=O)N3CCC(CCOc4ccc5cc4CCc4cncc(c4)Nc4ncc(Cl)c(n4)N5)CC3)c2O1 [Example D175, 4-(2-{[6-Chloro-2,4,8,18,22-pentaazatetracyclo[14.3.1.1(3,7).1(9,13)]docosa-1(20),3(22),4,6,9(21),10,12,16,18-nonaen-12-yl]oxy}ethyl)-N-(2,2-dimethyl-2,3-dihydro-1-benzofuran-7-yl)piperidine-1-carboxamide bis(trifluoroacetate)] | > 400 nM | 150 nM | > 400 nM | > 400 nM
8 | O=C(Nc1cccc(N2CCOCC2)n1)N1CCC(CCOc2ccc3cc2CCc2cncc(c2)Nc2ncc(Cl)c(n2)N3)CC1 [Example D176, 4-(2-{[6-Chloro-2,4,8,18,22-pentaazatetracyclo[14.3.1.1(3,7).1(9,13)]docosa-1(20),3(22),4,6,9(21),10,12,16,18-nonaen-12-yl]oxy}ethyl)-N-(6-morpholin-4-ylpyridin-2-yl)piperidine-1-carboxamide tris(trifluoroacetate)] | 208 nM | 124 nM | > 400 nM | > 400 nM
9 | O=C(c1cnccn1)N1CCC(CCOc2ccc3cc2CCc2cncc(c2)Nc2ncc(Cl)c(n2)N3)CC1 [Example D177, 6-Chloro-12-{2-[1-(pyrazin-2-ylcarbonyl)piperidin-4-yl]ethoxy}-2,4,8,18,22-pentaazatetracyclo[14.3.1.1(3,7).1(9,13)]docosa-1(20),3(22),4,6,9(21),10,12,16,18-nonaene tris(trifluoroacetate)] | 265 nM | 150 nM | > 400 nM | > 400 nM
10 | Cc1oncc1C(=O)N1CCC(CCOc2ccc3cc2CCc2cncc(c2)Nc2ncc(Cl)c(n2)N3)CC1 [Example D178, 6-Chloro-12-(2-{1-[(5-methylisoxazol-4-yl)carbonyl]piperidin-4-yl}ethoxy)-2,4,8,18,22-pentaazatetracyclo[14.3.1.1(3,7).1(9,13)]docosa-1(20),3(22),4,6,9(21),10,12,16,18-nonaene bis(trifluoroacetate)] | > 400 nM | 265 nM | > 400 nM | > 400 nM
11 | O=C(c1cccnc1Cl)N1CCC(CCOc2ccc3cc2CCc2cncc(c2)Nc2ncc(Cl)c(n2)N3)CC1 [Example D179, 6-Chloro-12-(2-{1-[(2-chloropyridin-3-yl)carbonyl]piperidin-4-yl}ethoxy)-2,4,8,18,22-pentaazatetracyclo[14.3.1.1(3,7).1(9,13)]docosa-1(20),3(22),4,6,9(21),10,12,16,18-nonaene tris(trifluoroacetate)] | > 400 nM | 226 nM | > 400 nM | > 400 nM
12 | O=C(c1cccnc1)N1CCC(CCOc2ccc3cc2CCc2cncc(c2)Nc2ncc(Cl)c(n2)N3)CC1 [Example D180, 6-Chloro-12-{2-[1-(pyridin-3-ylcarbonyl)piperidin-4-yl]ethoxy}-2,4,8,18,22-pentaazatetracyclo[14.3.1.1(3,7).1(9,13)]docosa-1(20),3(22),4,6,9(21),10,12,16,18-nonaene tris(trifluoroacetate)] | > 400 nM | 255 nM | > 400 nM | > 400 nM
13 | O=C(c1ccncc1)N1CCC(CCOc2ccc3cc2CCc2cncc(c2)Nc2ncc(Cl)c(n2)N3)CC1 [Example D181, 6-Chloro-12-[2-(1-isonicotinoylpiperidin-4-yl)ethoxy]-2,4,8,18,22-pentaazatetracyclo[14.3.1.1(3,7).1(9,13)]docosa-1(20),3(22),4,6,9(21),10,12,16,18-nonaene tris(trifluoroacetate)] | 313 nM | 115 nM | > 400 nM | > 400 nM
14 | O=C(Nc1cccnc1)N1CCC(CCOc2ccc3cc2CCc2cncc(c2)Nc2ncc(Cl)c(n2)N3)CC1 [Example D182, 4-(2-{[6-Chloro-2,4,8,18,22-pentaazatetracyclo[14.3.1.1(3,7).1(9,13)]docosa-1(20),3(22),4,6,9(21),10,12,16,18-nonaen-12-yl]oxy}ethyl)-N-pyridin-3-ylpiperidine-1-carboxamide tris(trifluoroacetate)] | 180 nM | 68 nM | > 400 nM | > 400 nM
